Results taken from ChEMBL document CHEMBL1201861, “Genomics of Drug Sensitity in Cancer screening data, Wellcome Trust Sanger Institute”.

What was measured:
Experiment in all cases: cells
BT-474 = type: functional, cell-based, Homo sapiens; conditions: Homo sapiens, BT-474
Description: SANGER: Inhibition of human BT-474 cell growth in a cell viability assay.

SW756 = type: functional, cell-based, Homo sapiens; conditions: Homo sapiens, SW756
Description: SANGER: Inhibition of human SW756 cell growth in a cell viability assay.

HCC1419 = type: functional, cell-based, Homo sapiens; conditions: Homo sapiens, HCC1419
Description: SANGER: Inhibition of human HCC1419 cell growth in a cell viability assay.

HMV-2 cell line = type: functional, cell-based, Homo sapiens; conditions: Homo sapiens, HMV-2
Description: SANGER: Inhibition of human HMV-II cell growth in a cell viability assay.

A101D = type: functional, cell-based, Homo sapiens; conditions: Homo sapiens, A101D
Description: SANGER: Inhibition of human A101D cell growth in a cell viability assay.

C-33-A = type: functional, cell-based, Homo sapiens; conditions: Homo sapiens, C-33-A
Description: SANGER: Inhibition of human C-33-A cell growth in a cell viability assay.

Ramos-2G6-4C10 = type: functional, cell-based; conditions: Homo sapiens
Description: SANGER: Inhibition of human Ramos-2G6-4C10 cell growth in a cell viability assay.

SCC-9 = type: functional, cell-based, Homo sapiens; conditions: Homo sapiens, SCC-9
Description: SANGER: Inhibition of human SCC-9 cell growth in a cell viability assay.

UMC-11 = type: functional, cell-based, Homo sapiens; conditions: Homo sapiens, UMC-11
Description: SANGER: Inhibition of human UMC-11 cell growth in a cell viability assay.

KNS-42 = type: functional, cell-based, Homo sapiens; conditions: Homo sapiens, KNS-42
Description: SANGER: Inhibition of human KNS-42 cell growth in a cell viability assay.

U-251 = type: functional, cell-based, Homo sapiens; conditions: Homo sapiens, U-251
Description: SANGER: Inhibition of human U251 cell growth in a cell viability assay.

SK-UT-1 = type: functional, cell-based, Homo sapiens; conditions: Homo sapiens, SK-UT-1
Description: SANGER: Inhibition of human SK-UT-1 cell growth in a cell viability assay.

OMC-1 = type: functional, cell-based, Homo sapiens; conditions: Homo sapiens, OMC-1
Description: SANGER: Inhibition of human OMC-1 cell growth in a cell viability assay.

SK-NEP-1 = type: functional, cell-based; conditions: Homo sapiens
Description: SANGER: Inhibition of human SK-NEP-1 cell growth in a cell viability assay.

SCC-4 = type: functional, cell-based, Homo sapiens; conditions: Homo sapiens, SCC-4
Description: SANGER: Inhibition of human SCC-4 cell growth in a cell viability assay.

CaR-1 = type: functional, cell-based, Homo sapiens; conditions: Homo sapiens, CaR-1
Description: SANGER: Inhibition of human CaR-1 cell growth in a cell viability assay.

KYSE-450 = type: functional, cell-based; conditions: Homo sapiens
Description: SANGER: Inhibition of human KYSE-450 cell growth in a cell viability assay.

SKG-IIIa = type: functional, cell-based, Homo sapiens; conditions: Homo sapiens, SKG-IIIa
Description: SANGER: Inhibition of human SKG-IIIa cell growth in a cell viability assay.

HT1197 = type: functional, cell-based, Homo sapiens, HT-1197; conditions: Homo sapiens, HT1197
Description: SANGER: Inhibition of human HT-1197 cell growth in a cell viability assay.

U-266 = type: functional, cell-based; conditions: Homo sapiens
Description: SANGER: Inhibition of human U-266 cell growth in a cell viability assay.

T-24 = type: functional, cell-based, Homo sapiens; conditions: Homo sapiens, T-24
Description: SANGER: Inhibition of human T-24 cell growth in a cell viability assay.

SK-MES-1 = type: functional, cell-based, Homo sapiens; conditions: Homo sapiens, SK-MES-1
Description: SANGER: Inhibition of human SK-MES-1 cell growth in a cell viability assay.

SW1710 = type: functional, cell-based, Homo sapiens; conditions: Homo sapiens, SW1710
Description: SANGER: Inhibition of human SW1710 cell growth in a cell viability assay.

A-427 = type: functional, cell-based, Homo sapiens; conditions: Homo sapiens, A-427
Description: SANGER: Inhibition of human A427 cell growth in a cell viability assay.

MeWo = type: functional, cell-based, Homo sapiens; conditions: Homo sapiens, MeWo
Description: SANGER: Inhibition of human Mewo cell growth in a cell viability assay.

BXPC-3 = type: functional, cell-based, Homo sapiens; conditions: Homo sapiens, BXPC-3
Description: SANGER: Inhibition of human BxPC-3 cell growth in a cell viability assay.

A2780 = type: functional, cell-based, Homo sapiens; conditions: Homo sapiens, A2780
Description: SANGER: Inhibition of human A2780 cell growth in a cell viability assay.

PC-14 = type: functional, cell-based, Homo sapiens; conditions: Homo sapiens, PC-14
Description: SANGER: Inhibition of human PC-14 cell growth in a cell viability assay.

NCI-H1755 = type: functional, cell-based, Homo sapiens; conditions: Homo sapiens, NCI-H1755
Description: SANGER: Inhibition of human NCI-H1755 cell growth in a cell viability assay.

HL-60 = type: functional, cell-based; conditions: Homo sapiens
Description: SANGER: Inhibition of human HL-60 cell growth in a cell viability assay.

LCLC-103H cell line = type: functional, cell-based, Homo sapiens; conditions: Homo sapiens, LCLC-103H
Description: SANGER: Inhibition of human LCLC-103H cell growth in a cell viability assay.

HOP-62 = type: functional, cell-based, Homo sapiens; conditions: Homo sapiens, HOP-62
Description: SANGER: Inhibition of human HOP-62 cell growth in a cell viability assay.

HCC1806 = type: functional, cell-based, Homo sapiens; conditions: Homo sapiens, HCC1806
Description: SANGER: Inhibition of human HCC1806 cell growth in a cell viability assay.

GP5d = type: functional, cell-based, Homo sapiens; conditions: Homo sapiens, GP5d
Description: SANGER: Inhibition of human GP5d cell growth in a cell viability assay.

NCI-H1838 = type: functional, cell-based, Homo sapiens; conditions: Homo sapiens, NCI-H1838
Description: SANGER: Inhibition of human NCI-H1838 cell growth in a cell viability assay.

KP-4 = type: functional, cell-based, Homo sapiens; conditions: Homo sapiens, KP-4; read-out: IC50
Description: SANGER: Inhibition of human KP-4 cell growth in a cell viability assay.

H4 = type: functional, cell-based; conditions: Homo sapiens
Description: SANGER: Inhibition of human H4 cell growth in a cell viability assay.

HCC1569 = type: functional, cell-based, Homo sapiens; conditions: Homo sapiens, HCC1569
Description: SANGER: Inhibition of human HCC1569 cell growth in a cell viability assay.

NB10 = type: functional, cell-based, Homo sapiens; conditions: Homo sapiens, NB10
Description: SANGER: Inhibition of human NB10 cell growth in a cell viability assay.

CWR22R = type: functional, cell-based, Homo sapiens; conditions: Homo sapiens, 22Rv1
Description: SANGER: Inhibition of human 22RV1 cell growth in a cell viability assay.

DOHH-2 = type: functional, cell-based; conditions: Homo sapiens
Description: SANGER: Inhibition of human DOHH-2 cell growth in a cell viability assay.

OVCAR-4 = type: functional, cell-based, Homo sapiens; conditions: Homo sapiens, OVCAR-4
Description: SANGER: Inhibition of human OVCAR-4 cell growth in a cell viability assay.

NCI-H520 = type: functional, cell-based, Homo sapiens; conditions: Homo sapiens, NCI-H520
Description: SANGER: Inhibition of human NCI-H520 cell growth in a cell viability assay.

BE-13 = type: functional, cell-based; conditions: Homo sapiens
Description: SANGER: Inhibition of human BE-13 cell growth in a cell viability assay.

KP-N-YN = type: functional, cell-based; conditions: Homo sapiens
Description: SANGER: Inhibition of human KP-N-YN cell growth in a cell viability assay.

ES3 = type: functional, cell-based, Homo sapiens; conditions: Homo sapiens, ES3
Description: SANGER: Inhibition of human ES3 cell growth in a cell viability assay.

MHH-ES-1 = type: functional, cell-based, Homo sapiens; conditions: Homo sapiens, MHH-ES-1
Description: SANGER: Inhibition of human MHH-ES-1 cell growth in a cell viability assay.

ChaGo-K-1 = type: functional, cell-based; conditions: Homo sapiens
Description: SANGER: Inhibition of human ChaGo-K-1 cell growth in a cell viability assay.

Calu-3 = type: functional, cell-based, Homo sapiens; conditions: Homo sapiens, Calu-3
Description: SANGER: Inhibition of human Calu-3 cell growth in a cell viability assay.

LK-2 = type: functional, cell-based, Homo sapiens; conditions: Homo sapiens, LK-2
Description: SANGER: Inhibition of human LK-2 cell growth in a cell viability assay.

LS-1034 = type: functional, cell-based, Homo sapiens; conditions: Homo sapiens, LS-1034
Description: SANGER: Inhibition of human LS-1034 cell growth in a cell viability assay.

## C[C@]1(O)C[C@@H](c2nc(-c3ccc4ccc(-c5ccccc5)nc4c3)c3c(N)nccn32)C1 [LINSITINIB]
BT-474
  IC50: > 2560 nM
SW756
  IC50: > 2560 nM
HCC1419
  IC50: > 2560 nM
HMV-2 cell line
  IC50: 88.5 nM
A101D
  IC50: > 2560 nM
C-33-A
  IC50: > 2560 nM
Ramos-2G6-4C10
  IC50: > 2560 nM
SCC-9
  IC50: > 2560 nM
UMC-11
  IC50: > 2560 nM
KNS-42
  IC50: > 2560 nM
U-251
  IC50: > 2560 nM
SK-UT-1
  IC50: > 2560 nM
OMC-1
  IC50: > 2560 nM
SK-NEP-1
  IC50: 602 nM
SCC-4
  IC50: > 2560 nM
CaR-1
  IC50: > 2560 nM
KYSE-450
  IC50: > 2560 nM
SKG-IIIa
  IC50: > 2560 nM
HT1197
  IC50: > 2560 nM
U-266
  IC50: > 2560 nM
T-24
  IC50: > 2560 nM
SK-MES-1
  IC50: > 2560 nM
SW1710
  IC50: > 2560 nM
A-427
  IC50: > 2560 nM
MeWo
  IC50: > 2560 nM
BXPC-3
  IC50: > 2560 nM
A2780
  IC50: > 2560 nM
PC-14
  IC50: > 2560 nM
NCI-H1755
  IC50: > 2560 nM
HL-60
  IC50: 1670 nM
LCLC-103H cell line
  IC50: > 2560 nM
HOP-62
  IC50: > 2560 nM
HCC1806
  IC50: > 2560 nM
GP5d
  IC50: > 2560 nM
NCI-H1838
  IC50: > 2560 nM
KP-4
  IC50: > 2560 nM
H4
  IC50: > 2560 nM
HCC1569
  IC50: > 2560 nM
NB10
  IC50: 454 nM
CWR22R
  IC50: > 2560 nM
DOHH-2
  IC50: > 2560 nM
OVCAR-4
  IC50: > 2560 nM
NCI-H520
  IC50: > 2560 nM
BE-13
  IC50: > 2560 nM
KP-N-YN
  IC50: > 2560 nM
ES3
  IC50: 1120 nM
MHH-ES-1
  IC50: > 2560 nM
ChaGo-K-1
  IC50: > 2560 nM
Calu-3
  IC50: > 2560 nM
LK-2
  IC50: > 2560 nM
LS-1034
  IC50: 271 nM

## C=CCc1cccc(/C=N/NC(=O)CN2CCN(Cc3ccccc3)CC2)c1O [PAC-1]
BT-474
  IC50: > 2560 nM
SW756
  IC50: > 2560 nM
HCC1419
  IC50: > 2560 nM
HMV-2 cell line
  IC50: > 2560 nM
A101D
  IC50: > 2560 nM
C-33-A
  IC50: > 2560 nM
Ramos-2G6-4C10
  IC50: > 2560 nM
SCC-9
  IC50: > 2560 nM
UMC-11
  IC50: > 2560 nM
KNS-42
  IC50: > 2560 nM
U-251
  IC50: > 2560 nM
SK-UT-1
  IC50: > 2560 nM
OMC-1
  IC50: > 2560 nM
SK-NEP-1
  IC50: > 2560 nM
SCC-4
  IC50: > 2560 nM
CaR-1
  IC50: > 2560 nM
KYSE-450
  IC50: > 2560 nM
SKG-IIIa
  IC50: > 2560 nM
HT1197
  IC50: > 2560 nM
U-266
  IC50: > 2560 nM
T-24
  IC50: > 2560 nM
SK-MES-1
  IC50: > 2560 nM
SW1710
  IC50: > 2560 nM
A-427
  IC50: > 2560 nM
MeWo
  IC50: > 2560 nM
BXPC-3
  IC50: 2090 nM
A2780
  IC50: > 2560 nM
PC-14
  IC50: > 2560 nM
NCI-H1755
  IC50: > 2560 nM
HL-60
  IC50: > 2560 nM
LCLC-103H cell line
  IC50: 1120 nM
HOP-62
  IC50: 2540 nM
HCC1806
  IC50: > 2560 nM
GP5d
  IC50: > 2560 nM
NCI-H1838
  IC50: > 2560 nM
KP-4
  IC50: > 2560 nM
H4
  IC50: > 2560 nM
HCC1569
  IC50: > 2560 nM
NB10
  IC50: > 2560 nM
CWR22R
  IC50: > 2560 nM
DOHH-2
  IC50: > 2560 nM
OVCAR-4
  IC50: > 2560 nM
NCI-H520
  IC50: > 2560 nM
BE-13
  IC50: > 2560 nM
KP-N-YN
  IC50: > 2560 nM
ES3
  IC50: > 2560 nM
MHH-ES-1
  IC50: > 2560 nM
ChaGo-K-1
  IC50: > 2560 nM
Calu-3
  IC50: > 2560 nM
LK-2
  IC50: > 2560 nM
LS-1034
  IC50: > 2560 nM
